Test results taken from patent US12364709B2, “Bioavailable poly amines” (AMINEX THERAPEUTICS, INC., priority 2016, dated 2025).
Where two headings read alike, the source gives them in different places.

Test: 28-day repeat-dose toxicity study, toxicokinetics of AMXT 1501 dicaprate
Format: in vivo, beagle dogs
Conditions: both sexes, beagle, dog, plasma, po
Protocol: AMXT 1501 PK parameters were calculated for all AMXT 1501 dicaprate-dosed animals for the first dose (Day 1) and last dose (Day 28).

Compound `CCCCCCCCCCCCCCCC(=O)NCCCC[C@@H](N)C(=O)NCCCNCCCCNCCCN` [AMXT 1501 dicaprate] has an AUC(0-t) (8 mg/kg/day, 8 mg/kg/day PO, DFMO 0, Day 1, M+F combined, read-out: AUC0-24 hr Median) of 1500 ng·h/mL, a Cmax (8 mg/kg/day, 8 mg/kg/day PO, DFMO 0, Day 1, M+F combined, read-out: Cmax Mean) of 95.6 ng/mL and a Cmax (8 mg/kg/day, 8 mg/kg/day PO, DFMO 0, Day 1, M+F combined, read-out: Cmax Median) of 115 ng/mL. It also gave a Tmax (8 mg/kg/day, 8 mg/kg/day PO, DFMO 0, Day 1, M+F combined, read-out: Tmax Mean) of 5.33 h, a Tmax (8 mg/kg/day, 8 mg/kg/day PO, DFMO 0, Day 1, M+F combined, read-out: Tmax Median) of 6 h and an AUC(0-t) (8 mg/kg/day, 8 mg/kg/day PO, DFMO 0, Day 28, M+F combined, read-out: AUC0-24 hr Mean) of 2210 ng·h/mL. For the same compound, the AUC(0-t) (8 mg/kg/day, 8 mg/kg/day PO, DFMO 0, Day 28, M+F combined, read-out: AUC0-24 hr Median) was 1690 ng·h/mL, the AUC(0-t) (8 mg/kg/day, 8 mg/kg/day PO, DFMO 0, Day 28, M+F combined, read-out: AUC0-t Mean) was 3390 ng·h/mL and the AUC(0-t) (8 mg/kg/day, 8 mg/kg/day PO, DFMO 0, Day 28, M+F combined, read-out: AUC0-t Median) was 1900 ng·h/mL. It also gave an AUC(0-inf) (8 mg/kg/day, 8 mg/kg/day PO, DFMO 0, Day 28, M+F combined, read-out: AUC0-∞ Mean) of 3440 ng·h/mL, an AUC(0-inf) (8 mg/kg/day, 8 mg/kg/day PO, DFMO 0, Day 28, M+F combined, read-out: AUC0-∞ Median) of 1930 ng·h/mL and a Cmax (8 mg/kg/day, 8 mg/kg/day PO, DFMO 0, Day 28, M+F combined, read-out: Cmax Mean) of 153 ng/mL. The Cmax (8 mg/kg/day, 8 mg/kg/day PO, DFMO 0, Day 28, M+F combined, read-out: Cmax Median) was 127 ng/mL, the Tmax (8 mg/kg/day, 8 mg/kg/day PO, DFMO 0, Day 28, M+F combined, read-out: Tmax Mean) was 4.6 h and the Tmax (8 mg/kg/day, 8 mg/kg/day PO, DFMO 0, Day 28, M+F combined, read-out: Tmax Median) was 6 h. It also gave a half-life (8 mg/kg/day, 8 mg/kg/day PO, DFMO 0, Day 28, M+F combined, read-out: t1/2 Mean (converted)) of 19.7 h, a half-life (8 mg/kg/day, 8 mg/kg/day PO, DFMO 0, Day 28, M+F combined, read-out: t1/2 Median (converted)) of 18.7 h and an AUC(0-t) (8 mg/kg/day, 8 mg/kg/day PO, DFMO 50 mg/kg/day, Day 28, M+F combined, read-out: AUC0-24 hr Mean) of 2120 ng·h/mL. For the same compound, the AUC(0-t) (8 mg/kg/day, 8 mg/kg/day PO, DFMO 50 mg/kg/day, Day 28, M+F combined, read-out: AUC0-24 hr Median) was 2250 ng·h/mL, the AUC(0-t) (8 mg/kg/day, 8 mg/kg/day PO, DFMO 50 mg/kg/day, Day 28, M+F combined, read-out: AUC0-t Mean) was 3010 ng·h/mL and the AUC(0-t) (8 mg/kg/day, 8 mg/kg/day PO, DFMO 50 mg/kg/day, Day 28, M+F combined, read-out: AUC0-t Median) was 2970 ng·h/mL. The AUC(0-inf) (8 mg/kg/day, 8 mg/kg/day PO, DFMO 50 mg/kg/day, Day 28, M+F combined, read-out: AUC0-∞ Mean) was 3070 ng·h/mL, the AUC(0-inf) (8 mg/kg/day, 8 mg/kg/day PO, DFMO 50 mg/kg/day, Day 28, M+F combined, read-out: AUC0-∞ Median) was 3020 ng·h/mL and the Cmax (8 mg/kg/day, 8 mg/kg/day PO, DFMO 50 mg/kg/day, Day 28, M+F combined, read-out: Cmax Mean) was 152 ng/mL. It also gave a Cmax (8 mg/kg/day, 8 mg/kg/day PO, DFMO 50 mg/kg/day, Day 28, M+F combined, read-out: Cmax Median) of 171 ng/mL, a Tmax (8 mg/kg/day, 8 mg/kg/day PO, DFMO 50 mg/kg/day, Day 28, M+F combined, read-out: Tmax Mean) of 6.67 h and a Tmax (8 mg/kg/day, 8 mg/kg/day PO, DFMO 50 mg/kg/day, Day 28, M+F combined, read-out: Tmax Median) of 6 h. The half-life (8 mg/kg/day, 8 mg/kg/day PO, DFMO 50 mg/kg/day, Day 28, M+F combined, read-out: t1/2 Mean (converted)) was 18 h, the half-life (8 mg/kg/day, 8 mg/kg/day PO, DFMO 50 mg/kg/day, Day 28, M+F combined, read-out: t1/2 Median (converted)) was 20.3 h and the AUC(0-t) (8 mg/kg/day, 8 mg/kg/day PO, DFMO 200 mg/kg/day, Day 1, M+F combined, read-out: AUC0-24 hr Mean) was 1470 ng·h/mL. It also gave an AUC(0-t) (8 mg/kg/day, 8 mg/kg/day PO, DFMO 200 mg/kg/day, Day 1, M+F combined, read-out: AUC0-24 hr Median) of 1390 ng·h/mL, a Cmax (8 mg/kg/day, 8 mg/kg/day PO, DFMO 200 mg/kg/day, Day 1, M+F combined, read-out: Cmax Mean) of 101 ng/mL and a Cmax (8 mg/kg/day, 8 mg/kg/day PO, DFMO 200 mg/kg/day, Day 1, M+F combined, read-out: Cmax Median) of 86.5 ng/mL. It also gave a Tmax (8 mg/kg/day, 8 mg/kg/day PO, DFMO 200 mg/kg/day, Day 1, M+F combined, read-out: Tmax Mean) of 9 h, a Tmax (8 mg/kg/day, 8 mg/kg/day PO, DFMO 200 mg/kg/day, Day 1, M+F combined, read-out: Tmax Median) of 9 h and an AUC(0-t) (16 mg/kg/day, 16 mg/kg/day PO, DFMO 0, Day 1, M+F combined, read-out: AUC0-24 hr Mean) of 2500 ng·h/mL. It also gave an AUC(0-t) (16 mg/kg/day, 16 mg/kg/day PO, DFMO 0, Day 1, M+F combined, read-out: AUC0-24 hr Median) of 1750 ng·h/mL, a Cmax (16 mg/kg/day, 16 mg/kg/day PO, DFMO 0, Day 1, M+F combined, read-out: Cmax Mean) of 155 ng/mL and a Cmax (16 mg/kg/day, 16 mg/kg/day PO, DFMO 0, Day 1, M+F combined, read-out: Cmax Median) of 113 ng/mL. The Tmax (16 mg/kg/day, 16 mg/kg/day PO, DFMO 0, Day 1, M+F combined, read-out: Tmax Mean) was 6 h, the Tmax (16 mg/kg/day, 16 mg/kg/day PO, DFMO 0, Day 1, M+F combined, read-out: Tmax Median) was 6 h and the AUC(0-t) (16 mg/kg/day, 16 mg/kg/day PO, DFMO 0, Day 28, M+F combined, read-out: AUC0-24 hr Mean) was 4590 ng·h/mL. It also gave an AUC(0-t) (16 mg/kg/day, 16 mg/kg/day PO, DFMO 0, Day 28, M+F combined, read-out: AUC0-24 hr Median) of 4890 ng·h/mL and an AUC(0-t) (16 mg/kg/day, 16 mg/kg/day PO, DFMO 0, Day 28, M+F combined, read-out: AUC0-t Mean) of 7970 ng·h/mL.
